# Source: ChEMBL document CHEMBL1130835, “Peptidyl beta-homo-aspartals: specific inhibitors of interleukin-1 beta converting enzyme and its homologues (caspases)” (Bioorg Med Chem Lett, 1998)
# Molecular target: Serine protease 1 (Homo sapiens, UniProt P07477)
# Assay: Ability to inhibit Trypsin was evaluated by amidolytic method using fluorogenic or chromogenic substrates; call rule not given here
# Sequence of Serine protease 1 (P07477 whole entry): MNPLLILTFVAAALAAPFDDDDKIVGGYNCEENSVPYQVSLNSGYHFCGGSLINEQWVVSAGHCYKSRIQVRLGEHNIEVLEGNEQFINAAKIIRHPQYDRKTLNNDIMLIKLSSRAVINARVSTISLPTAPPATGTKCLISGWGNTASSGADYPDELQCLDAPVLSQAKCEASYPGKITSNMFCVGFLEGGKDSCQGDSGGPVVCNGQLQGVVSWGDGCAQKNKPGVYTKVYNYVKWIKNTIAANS
row,SMILES,IC50 [µM]
1,CC(C)(C)OC(=O)N[C@H](Cc1ccccc1)C(=O)N1CCC[C@@H]1C(=O)N[C@H](CC=O)CCCN=C(N)N,1.76
2,CC(C)(C)OC(=O)N[C@H](Cc1ccccc1)C(=O)N1CCC[C@@H]1C(=O)N[C@@H](C=O)CCCN=C(N)N,1.79
3,CC(C)(C)OC(=O)N[C@H](Cc1ccccc1)C(=O)N1CCC[C@@H]1C(=O)N[C@H](C=O)CCCNC(=N)N,0.003

# Molecular target: T1, Caspase-1 (Homo sapiens, UniProt P29466)
# T1 sequence (P29466 whole entry): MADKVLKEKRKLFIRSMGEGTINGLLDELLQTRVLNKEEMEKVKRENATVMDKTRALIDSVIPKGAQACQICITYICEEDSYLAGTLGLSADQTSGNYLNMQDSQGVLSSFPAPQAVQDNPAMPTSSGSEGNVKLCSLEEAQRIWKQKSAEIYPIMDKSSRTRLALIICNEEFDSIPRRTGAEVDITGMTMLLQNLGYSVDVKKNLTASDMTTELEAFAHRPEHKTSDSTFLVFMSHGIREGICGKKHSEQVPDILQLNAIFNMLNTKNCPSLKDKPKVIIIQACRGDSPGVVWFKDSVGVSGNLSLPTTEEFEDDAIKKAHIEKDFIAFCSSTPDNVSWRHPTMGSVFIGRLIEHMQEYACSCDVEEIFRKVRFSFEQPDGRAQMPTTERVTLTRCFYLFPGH
# Assay: Ability to inhibit IL-1 beta converting enzyme was evaluated in LPS-stimulated human whole blood
# Type: tissue-based
row,SMILES,IC50 [µM]
1,CC(=O)N[C@@H](Cc1ccc(O)cc1)C(=O)N[C@H](C(=O)N[C@@H](C)C(=O)N[C@H](CC=O)CC(=O)O)C(C)C,2.9
2,CC(=O)N[C@@H](Cc1ccc(O)cc1)C(=O)N[C@H](C(=O)N[C@@H](C)C(=O)N[C@H](C=O)CC(=O)O)C(C)C,2

# Molecular target: T1, Caspase-1
# Assay: Amidolytic activity of THP.1 cell lysate against IL-1 beta converting enzyme using C1-Asp-AMC as a substrate
# Type: cell-based
row,SMILES,IC50 [µM]
1,CC(=O)N[C@@H](CC(=O)O)C(=O)N[C@@H](CCC(=O)O)C(=O)N[C@H](C(=O)N[C@H](CC=O)CC(=O)O)C(C)C,0.0223
2,CC(=O)N[C@@H](Cc1ccc(O)cc1)C(=O)N[C@H](C(=O)N[C@@H](C)C(=O)N[C@H](CC=O)CC(=O)O)C(C)C,142
3,CC(=O)N[C@@H](Cc1ccc(O)cc1)C(=O)N[C@H](C(=O)N[C@@H](C)C(=O)N[C@H](C=O)CC(=O)O)C(C)C,68
4,CC(=O)N[C@@H](CC(=O)O)C(=O)N[C@@H](CCC(=O)O)C(=O)N[C@H](C(=O)N[C@H](C=O)CC(=O)O)C(C)C,70

# Molecular target: T2, Caspase-3 (Homo sapiens, UniProt P42574)
# T2 sequence (P42574 whole entry): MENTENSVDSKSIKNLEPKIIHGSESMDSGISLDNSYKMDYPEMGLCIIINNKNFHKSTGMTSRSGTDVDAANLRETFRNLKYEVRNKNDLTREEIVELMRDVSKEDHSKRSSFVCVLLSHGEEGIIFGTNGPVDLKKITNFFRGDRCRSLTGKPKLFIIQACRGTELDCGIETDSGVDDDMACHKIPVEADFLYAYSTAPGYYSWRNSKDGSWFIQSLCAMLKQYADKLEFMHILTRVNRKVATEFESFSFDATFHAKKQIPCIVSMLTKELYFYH
# Assay: Amidolytic activity of THP.1 cell lysate against Caspase-3 using C3-Asp-AMC as a substrate
# Type: cell-based
row,SMILES,IC50 [µM]
1,CC(=O)N[C@@H](CC(=O)O)C(=O)N[C@@H](CCC(=O)O)C(=O)N[C@H](C(=O)N[C@H](CC=O)CC(=O)O)C(C)C,0.438
2,CC(=O)N[C@@H](Cc1ccc(O)cc1)C(=O)N[C@H](C(=O)N[C@@H](C)C(=O)N[C@H](C=O)CC(=O)O)C(C)C,190

# Molecular target: Prothrombin (Homo sapiens, UniProt P00734)
# Assay: Ability to inhibit Thrombin was evaluated by amidolytic method using fluorogenic or chromogenic substrates
row,SMILES,IC50 [µM]
1,CC(C)(C)OC(=O)N[C@H](Cc1ccccc1)C(=O)N1CCC[C@@H]1C(=O)N[C@H](CC=O)CCCN=C(N)N,0.19
2,CC(C)(C)OC(=O)N[C@H](Cc1ccccc1)C(=O)N1CCC[C@@H]1C(=O)N[C@@H](C=O)CCCN=C(N)N,5.44
3,CC(C)(C)OC(=O)N[C@H](Cc1ccccc1)C(=O)N1CCC[C@@H]1C(=O)N[C@H](C=O)CCCNC(=N)N,0.009

# Molecular target: T3, Papain (Carica papaya, UniProt P00784)
# T3 sequence (P00784 whole entry): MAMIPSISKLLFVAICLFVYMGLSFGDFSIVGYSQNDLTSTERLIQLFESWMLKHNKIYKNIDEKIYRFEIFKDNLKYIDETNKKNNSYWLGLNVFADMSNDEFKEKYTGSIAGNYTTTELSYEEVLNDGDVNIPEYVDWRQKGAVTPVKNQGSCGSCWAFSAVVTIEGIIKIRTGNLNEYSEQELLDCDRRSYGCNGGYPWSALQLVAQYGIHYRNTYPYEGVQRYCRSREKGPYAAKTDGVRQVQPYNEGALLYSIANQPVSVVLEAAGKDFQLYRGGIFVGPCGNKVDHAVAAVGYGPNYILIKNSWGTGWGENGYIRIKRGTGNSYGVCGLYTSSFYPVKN
# Assay: Ability to inhibit papain was evaluated by amidolytic method using fluorogenic or chromogenic substrates
row,SMILES,IC50 [µM]
1,CC[C@H](C)[C@H](NC(=O)[C@H](CCCN=C(N)N)NC(=O)OCc1ccccc1)C(=O)N[C@H](C=O)Cc1ccccc1,0.07
2,CC[C@H](C)[C@H](NC(=O)[C@H](CCCN=C(N)N)NC(=O)OCc1ccccc1)C(=O)N[C@H](CC=O)Cc1ccccc1,65
3,CC[C@H](C)[C@H](NC(=O)[C@H](CCCN=C(N)N)NC(=O)OCc1ccccc1)C(=O)N[C@@H](C=O)Cc1ccccc1,8.5
4,CC(C)COC(=O)N[C@@H](Cc1ccccc1)C(=O)N[C@@H](C=O)CCCN=C(N)N,12.5
5,CC(C)COC(=O)N[C@@H](Cc1ccccc1)C(=O)N[C@H](C=O)CCCNC(=N)N,0.13
6,CC(C)COC(=O)N[C@@H](Cc1ccccc1)C(=O)N[C@H](CC=O)CCCNC(=N)N,105

# Molecular target: T2, Caspase-3
# Assay: Amidolytic activity of THP.1 cell lysate against Caspase-3 using C3-Asp-AMC as a substrate at 10e -4 M concentration; NI is No Inhibition
row,SMILES,IC50
1,CC(=O)N[C@@H](Cc1ccc(O)cc1)C(=O)N[C@H](C(=O)N[C@@H](C)C(=O)N[C@H](CC=O)CC(=O)O)C(C)C,Not Active
2,CC(=O)N[C@@H](CC(=O)O)C(=O)N[C@@H](CCC(=O)O)C(=O)N[C@H](C(=O)N[C@H](C=O)CC(=O)O)C(C)C,Not Active
